# Reference: doi:10.1101/2025.11.18.689095 (bioRxiv, 2025)
# Where no end group is shown, it is not given here.
# Assays:
# Tom70:Orf9b complex [1] = target: Tom70:Orf9b complex; parameters: species or system human Tom70; SARS-CoV-2 Orf9b; settings: read-out: binding affinity (KD) of full-length Hsp90 to Tom70:Orf9b complex; pH 8
# Tom70:Orf9b complex [2] = assay type: binding, human Tom70; SARS-CoV-2 Orf9b
# Tom70:Orf9bHelix complex [3] = target: T1, Tom70:Orf9bHelix complex (Homo sapiens, UniProt O94826); assay type: binding, human Tom70; SARS-CoV-2 Orf9b; settings: pH 8
# T1 construct: human Tom70 (residues 108–608); Avi tag (N, cleaved yes); His6 tag (N, cleaved yes); (GGS)5 linker and TEV cleavage site (N, cleaved yes); host or cells: E. coli BL21 (DE3) for Tom70; synthetic peptide
# T1 sequence (P0DTD2 44-77 partner limits assumed, one chain of several): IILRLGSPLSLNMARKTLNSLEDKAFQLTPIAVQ
# [4] = target: T2, human Tom70 (residues 108–608) (Homo sapiens, UniProt O94826); assay: ITC, Hsp90 binding to free Tom70
# T2 construct: human Tom70 (residues 108–608); Avi tag (N, cleaved yes); His6 tag (N, cleaved yes); (GGS)5 linker and TEV cleavage site (N, cleaved yes); made in house; host or cells: E. coli BL21 (DE3)
# T2 sequence (O94826 108-608): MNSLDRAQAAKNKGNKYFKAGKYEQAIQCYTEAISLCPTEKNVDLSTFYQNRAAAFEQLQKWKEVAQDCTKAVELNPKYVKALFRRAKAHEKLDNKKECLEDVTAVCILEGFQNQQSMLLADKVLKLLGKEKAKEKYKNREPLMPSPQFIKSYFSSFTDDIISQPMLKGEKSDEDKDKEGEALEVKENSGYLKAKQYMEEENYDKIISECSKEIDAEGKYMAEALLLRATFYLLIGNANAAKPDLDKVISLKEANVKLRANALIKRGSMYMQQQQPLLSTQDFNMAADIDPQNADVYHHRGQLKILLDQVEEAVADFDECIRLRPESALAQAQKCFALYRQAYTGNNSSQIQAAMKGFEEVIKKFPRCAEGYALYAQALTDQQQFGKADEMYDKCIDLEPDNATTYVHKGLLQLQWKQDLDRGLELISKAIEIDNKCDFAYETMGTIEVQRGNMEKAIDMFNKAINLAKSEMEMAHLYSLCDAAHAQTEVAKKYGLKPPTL
# Protocol: (§1) All ITC experiments were recorded at 20°C using a Microcal-PEAQ-ITC calorimeter (Malvern Panalytical). Experiments involving full-length Hsp90 or the Hsp90EEVD peptide were carried out in buffer containing 20 mM sodium phosphate (pH 8), 150 mM NaCl, 2 mM TCEP, and 10% glycerol. 10% glycerol was required to prevent precipitation of Hsp90 during titration.
# (§2) Unbound Orf9bHelix was removed via multiple rounds of concentration and buffer exchange on a concentrator (Vivaspin 20, Satorius). Orf9b truncation mutant complexes were produced in the same way. Experiments involving the binding of Orf9bHelix titrated into Tom70 were carried out in buffer containing 20 mM sodium phosphate (pH 7), 100 mM NaCl, and 2 mM TCEP. Orf9bHelix (120 μM) was titrated into 15 μM Tom70 or Tom70:Hsp90EEVD complex (15 μM Tom70: 400 μM Hsp90EEVD).
# (§3) All data was fit using a 1:1 binding model to obtain the reported thermodynamic parameters using the software provided by the instrument. Reported parameters are the average and standard deviation of individual runs of the experiment, as outlined in supplementary information (Figs S3 and S9).
# Tom70 = assay: BLI kinetics, Hsp90 with free Tom70; assay type: binding, human
# Protocol: We therefore indirectly estimated kon values by combining koff values obtained from BLI with KD values determined by ITC, i.e., kon=koffBLI/KDITC .
# Biotinylated Hsp90 proteins were immobilized onto streptavidin biosensor probes, and experiments were conducted in buffer containing 20 mM sodium phosphate (pH 7), 150 mM NaCl, 1% BSA, 0.6 M sucrose, and 1 mM TCEP[68]. […] To combat heterogenous binding, dissociation curves were fit with a two-phase exponential curve. Due to the association rate (kon) being too rapid to quantify, kon values were indirectly estimated by combining koff values obtained from BLI with KD values determined by ITC ( kon=koffBLI/KDITC ). All data are corrected for non-specific binding. Error is given as the standard deviation of at least two measurements.
# Tom70:Orf9bHelix complex [5] = target: T1, Tom70:Orf9bHelix complex; assay: biochemical; assay type: binding, human Tom70; SARS-CoV-2 Orf9b
# [6] = target: T2, human Tom70 (residues 108–608); assay: ITC, Hsp90EEVD peptide binding to free Tom70; settings: 20°C, pH 8, 150 mM NaCl, 2 mM TCEP, 10% glycerol, Hsp90EEVD (400–500 μM) into Tom70 (30 μM), mean ± SD of 3 measurements, read-out: KD of Hsp90EEVD to Tom70 alone
# Protocol: as §1, §2, §3
substance,measurement,setting,value
"Hsp90: human Hsp90α (residues 1–732), expressed in E. coli",Kd,Tom70:Orf9b complex [1],22 ± 1 µM
same,kon for Hsp90 binding to Tom70 in presence of bound full-length Orf9b,Tom70:Orf9b complex [2],20000 ± 10000 M⁻¹ s⁻¹
same,thermodynamic signature of binding to Tom70-Orf9bHelix complex,Tom70:Orf9bHelix complex [3],driven entirely by a favorable enthalpy change
same,Kd,"[4]; 20°C, 20 mM sodium phosphate pH 8, 150 mM NaCl, 2 mM TCEP, 10% glycerol, Tom70 (400 μM) into Hsp90 (20 μM), 1:1 model, mean ± SD of 3 measurements, read-out: binding affinity (KD) of full-length Hsp90 to free Tom70",3 ± 1 µM
same,thermodynamic signature of binding to free Tom70,"[4]; 20°C, pH 8, Fig 5C",a favorable entropy change was the major driving force
same,affinity of full-length Hsp90 to free Tom70 relative to Hsp90EEVD peptide,[4]; higher affinity than the Hsp90EEVD peptide,4 fold
same,"association rate of Hsp90 to free Tom70 (BLI, direct)","Tom70; BLI, 25°C, pH 7, 150 mM NaCl, 1% BSA, 0.6 M sucrose, 1 mM TCEP, Hsp90 immobilized",too rapid to quantify accurately
same,kon for Hsp90 binding to free Tom70,"Tom70; indirectly estimated, kon = koff(BLI)/KD(ITC), BLI 25°C pH 7, ITC 20°C pH 8, SD of at least two measurements",500000 ± 200000 M⁻¹ s⁻¹
YDTSRMEEVD [Hsp90EEVD],Kd,Tom70:Orf9bHelix complex [5],12 ± 1 µM
same,Kd,[6],12 ± 1 µM
